# Results taken from patent publication US11046672B2, “Indolinones compounds and their use in the treatment of fibrotic diseases” (RESPIVERT LIMITED, priority 2015, dated 2021).
# “And” between values parts separate entries of the source, which are not always exact repeats. Identical values can stand only once.
# Key:
# PAMPA permeability assay = assay type: in vitro ADME; conditions: for Papp at 5 h, 10 μM: pH 7, pH 7, 10 μM; for recovery at 5 hr, 10 μM: pH 7, PAMPA
# MRC5 cells = assay: Cell viability assay in MRC5 cells (MTT)
# PDGFRβ [1] = molecular target: T1, PDGFRβ (Homo sapiens (Human), UniProt P09619); conditions: read-out: Ki PDGFRβ; mean, n = 2 unless otherwise indicated
# PDGFRβ [2] = molecular target: T1, PDGFRβ; assay: PDGF-BB induced phosphorylation of PDGFRβ in fibroblasts (MRC5 cells, HTRF); assay type: cell-based; conditions: MRC5 cells; n = 1 unless otherwise indicated; read-out: PDGFBB-induced PDGFRβ phosphorylation in MRC5 cells (IC50)
# [3] = PAMPA, donor and acceptor compartments
# T1 sequence (P09619 33-1106): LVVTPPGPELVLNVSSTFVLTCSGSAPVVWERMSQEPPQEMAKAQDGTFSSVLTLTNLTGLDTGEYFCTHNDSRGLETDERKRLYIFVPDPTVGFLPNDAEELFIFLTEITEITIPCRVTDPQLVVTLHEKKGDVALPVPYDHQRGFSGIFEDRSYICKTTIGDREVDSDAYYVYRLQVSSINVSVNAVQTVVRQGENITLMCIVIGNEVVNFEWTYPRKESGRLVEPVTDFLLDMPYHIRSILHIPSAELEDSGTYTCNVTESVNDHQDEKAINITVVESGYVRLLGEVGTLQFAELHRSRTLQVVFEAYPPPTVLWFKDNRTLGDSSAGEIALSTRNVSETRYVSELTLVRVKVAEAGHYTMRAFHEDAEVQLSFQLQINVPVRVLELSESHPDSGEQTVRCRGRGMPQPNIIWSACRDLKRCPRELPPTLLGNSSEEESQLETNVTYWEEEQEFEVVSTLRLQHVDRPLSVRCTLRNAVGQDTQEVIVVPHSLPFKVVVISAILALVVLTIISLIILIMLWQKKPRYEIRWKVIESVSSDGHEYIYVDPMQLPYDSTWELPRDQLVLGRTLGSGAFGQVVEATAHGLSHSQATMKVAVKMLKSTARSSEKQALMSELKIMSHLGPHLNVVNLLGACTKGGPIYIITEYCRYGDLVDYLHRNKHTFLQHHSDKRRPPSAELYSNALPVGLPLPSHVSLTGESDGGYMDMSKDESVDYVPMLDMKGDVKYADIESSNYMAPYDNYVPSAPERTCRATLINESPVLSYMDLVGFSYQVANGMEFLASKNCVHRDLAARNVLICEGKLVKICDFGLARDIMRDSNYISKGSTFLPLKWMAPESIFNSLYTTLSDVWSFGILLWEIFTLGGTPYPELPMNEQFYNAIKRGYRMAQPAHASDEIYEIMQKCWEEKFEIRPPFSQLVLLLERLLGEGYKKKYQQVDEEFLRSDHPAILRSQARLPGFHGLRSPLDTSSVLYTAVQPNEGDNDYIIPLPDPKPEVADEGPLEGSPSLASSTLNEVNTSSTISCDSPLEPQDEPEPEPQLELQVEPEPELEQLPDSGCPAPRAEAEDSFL
SMILES,% Recovery (PAMPA permeability assay; [3]),"Papp at 5 h, 10 μM (PAMPA permeability assay; PAMPA, 5 hr) [×10⁻⁶ cm/s]","Mean Papp (PAMPA permeability assay; pH 7, 10 μM, 5 hr)",Ki (PDGFRβ [1]) [nM],"recovery at 5 hr, 10 μM (PAMPA permeability assay; [3]) [%]",IC50 (PDGFRβ [2]) [nM],Cell viability at 100 nM (%) (MRC5 cells),Cell viability at 300 nM (%) (MRC5 cells),Cell viability at 1000 nM (%) (MRC5 cells)
COC(=O)c1cc2c(cc1C)/C(=C(/Nc1ccc(C(=O)NOCCN(C)C)cc1)c1ccccc1)C(=O)N2 [Example 26],,0.0156,,,40.2,,111.8,111.4%,88%
COC(=O)c1ccc2c(c1)NC(=O)/C2=C(\Nc1ccc(S(=O)(=O)N(C)OC)cc1)c1ccccc1 [Example 11],,,,,,15.3,104.8,91.5 (n = 2) %,94.8 (n = 2) %
COC(=O)c1cc2c(cc1C)/C(=C(/Nc1ccc(C(=O)NOCCCN3CCC(OC)CC3)cc1)c1ccccc1)C(=O)N2 [Example 55],,0.154,,,59.1,,106.7,111.1%,92.3%
COC(=O)c1cc2c(cc1C)/C(=C(/Nc1ccc(C(=O)N(C)OCCN3CCN[C@H](C)C3)cc1)c1ccccc1)C(=O)N2 [Example 65],,,,,,,118.6,110.3%,70.5%
"CNC(=O)CN1CCN(CCON(C)C(=O)c2ccc(N/C(=C3\C(=O)Nc4cc(C(=O)OC)c(C)cc43)c3ccccc3)cc2)CC1 [Example 9, (Z)-Methyl 5-methyl-3-(((4-(methyl(2-(4-(2-(methylamino)-2-oxoethyl)piperazin-1-yl)ethoxy)carbamoyl)phenyl)amino)(phenyl)methylene)-2-oxoindoline-6-carboxylate]",,0.0761,,,82.9,8.45,129.9,96.3%,88.6%
COC(=O)c1ccc2c(c1)NC(=O)/C2=C(\Nc1ccc(C(=O)N2CCN(C)CCO2)cc1)c1ccccc1 [Example 24],,44.8,,15.5,71.8,,85.4,104.7%,103.1%

# The next lines start with results.
% Recovery (PAMPA permeability assay; [3]),"Papp at 5 h, 10 μM (PAMPA permeability assay; PAMPA, 5 hr) [×10⁻⁶ cm/s]","Mean Papp (PAMPA permeability assay; pH 7, 10 μM, 5 hr)",Ki (PDGFRβ [1]) [nM],"recovery at 5 hr, 10 μM (PAMPA permeability assay; [3]) [%]",IC50 (PDGFRβ [2]) [nM],SMILES,Cell viability at 100 nM (%) (MRC5 cells),Cell viability at 300 nM (%) (MRC5 cells),Cell viability at 1000 nM (%) (MRC5 cells)
91.7% and 66.5%,0.0305,0.0296 10^−6 cm s^−1,11.1,,,COC(=O)c1ccc2c(c1)NC(=O)/C2=C(\Nc1ccc(C(=O)NOCCN(C)C)c(F)c1)c1ccccc1 [Example 20],75.5,81.7%,90.7%
,,,14.1,,,COC(=O)c1ccc2c(c1)NC(=O)/C2=C(\Nc1ccc(C(=O)NOCCN2CCOCC2)c(C)c1)c1ccccc1 [Example 16],79,59.9%,51.9%
,0.00407,,,69,,COC(=O)c1cc2c(cc1C)/C(=C(/Nc1ccc(C(=O)NOCCN3CCN(C)CC3)c(C)c1)c1ccccc1)C(=O)N2 [Example 28],110.2,117%,104.8%
,0.0142,,11.7,91.9,,COC(=O)c1ccc2c(c1)NC(=O)/C2=C(\Nc1ccc(C(=O)NOCCN2CCN(C)CC2)c(C)c1)c1ccccc1 [Example 17],83,90.5%,92.5%
,,,,,9.98,COC(=O)c1cc2c(cc1C)/C(=C(/Nc1ccc(C(=O)NOCCN3CCNC(=O)C3)cc1)c1ccccc1)C(=O)N2 [Example 70],91.7,99.7%,94.0%
,,,,,36.7,CNC(=O)CN1CCN(CCONC(=O)c2ccc(N/C(=C3\C(=O)Nc4cc(C(=O)OC)ccc43)c3ccccc3)cc2)CC1 [Example 72],,,
,0.564,,11.6,41,,COC(=O)c1ccc2c(c1)NC(=O)/C2=C(\Nc1ccc(C(=O)NOCCN2CCOCC2)cc1)c1ccccc1 [Example 12],104.8,101.7%,79.4%
